Assay results reported in patent publication US20030162777A1, “Novel N-acylated heterocycles” (Recordati S.A., priority 2001, published 2003).

Target: T1, human 5HT1A-serotonergic receptor (Homo sapiens, UniProt P08908)
T1 construct: expressed in transfected cells; host or cells: HeLa (human cell line), stably transfected; cell membranes used
T1 sequence (P08908 1-422): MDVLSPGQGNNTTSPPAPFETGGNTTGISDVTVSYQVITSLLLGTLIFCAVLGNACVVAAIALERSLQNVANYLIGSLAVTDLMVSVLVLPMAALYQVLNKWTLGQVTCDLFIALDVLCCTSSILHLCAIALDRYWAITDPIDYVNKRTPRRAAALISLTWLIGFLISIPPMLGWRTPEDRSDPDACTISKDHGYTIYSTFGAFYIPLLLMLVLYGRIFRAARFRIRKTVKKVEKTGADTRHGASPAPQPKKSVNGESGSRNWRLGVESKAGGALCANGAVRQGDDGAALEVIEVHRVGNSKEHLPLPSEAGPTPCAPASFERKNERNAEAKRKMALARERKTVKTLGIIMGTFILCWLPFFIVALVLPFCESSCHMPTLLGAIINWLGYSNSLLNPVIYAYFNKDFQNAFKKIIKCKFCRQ
Test: Radioligand binding to recombinant 5-HT1A receptors
Settings: [3H]8-OH-DPAT 1 nM, membranes of HeLa cells with human 5-HT1A receptor; Ki from IC50 by Cheng & Prusoff; read-out: Binding affinity for 5HT1A receptors, Ki
Outline: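 Displacement of 1 nM [3H]8-OH-DPAT (30 min, 30 °C, Tris-HCl pH 7.4 with MgCl2 and pargyline) from recombinant human 5-HT1A in transfected HeLa membranes, stopped by filtration. Specific binding defined against 10 μM 5-HT; IC50 by nonlinear fitting, then Ki by Cheng–Prusoff.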

Compound | Ki [nM]
Cc1ccccc1NC(=O)N1c2ccccc2CCC1CN1CCN(c2cccc3c2OCCO3)CC1 (stereo not drawn) [Example 76A12, 1-(2,3-Dihydrobenzo[1,4]dioxin-5-yl)-4-[1-(2-methylphenylaminocarbonyl)-1,2,3,4-tetrahydroquinolin-2-ylmethyl]piperazine] | 8
O=C(C1CCCCC1)N1c2ccccc2CCC1CN1CCN(c2ccc(F)cc2)CC1 (stereo not drawn) [Example 72A26, 1-(1-Cyclohexanecarbonyl-1,2,3,4-tetrahydroquinolin-2-ylmethyl)-4-(4-fluorophenyl)piperazine] | 19.6
Cc1cccc(N2CCN(CC3CCc4ccccc4N3C(=O)C3CCCCC3)CC2)n1 (stereo not drawn) [Example 72A20, 1-(1-Cyclohexanecarbonyl-1,2,3,4-tetrahydroquinolin-2-ylmethyl)-4-(6-methylpyridin-2-yl)piperazine] | 5.4
O=C1CCC(CC(=O)N2c3ccccc3CCC2CN2CCN(c3cccc4[nH]ccc34)CC2)N1 (stereo not drawn) [Example 68A54, 1-(4-Indolyl)-4-[1-[2-(5-oxopyrrolidin-2yl)acetyl]-1,2,3,4-tetrahydroquinoline-2-ylmethyl]piperazine] | 41.4
Cc1ccc2c(c1)CCC(CN1CCN(c3cccc4[nH]ccc34)CC1)N2C(=O)C1CCCCC1 (stereo not drawn) [Example 32, 1-(1-Cyclohexanecarbonyl-6-methyl-1,2,3,4-tetrahydroquinoline-2-ylmethyl)-4-(4-indolyl)piperazine] | 2.8
COc1ccc(S(=O)(=O)N2c3ccccc3CCC2CN2CCN(c3cccc4[nH]ccc34)CC2)cc1 (stereo not drawn) [Example 70A2, 1(4-Indolyl)-4-[1-(4-methoxyphenylsulphonyl)-1,2,3,4-tetrahydroquinoline-2-ylmethyl]piperazine] | 18.8
N#Cc1ccc(S(=O)(=O)N2c3ccccc3CCC2CN2CCN(c3cccc4[nH]ccc34)CC2)cc1 (stereo not drawn) [Example 70A5, 1-[1-(4-Cyanophenylsulphonyl)-1,2,3,4-tetrahydroquinoline-2-ylmethyl]-4-(4-indolyl)piperazine] | 40.3
CC(C)NC(=O)N1c2ccccc2CCC1CN1CCN(c2cccc3[nH]ccc23)CC1 (stereo not drawn) [Example 69A7, 1-(4-Indolyl)-4-[1-(1-methylethylaminocarbonyl)-1,2,3,4-tetrahydroquinoline-2-ylmethyl]piperazine] | 36
O=C(Cc1ccsc1)N1c2ccccc2CCC1CN1CCN(c2cccc3c2OCCO3)CC1 (stereo not drawn) [Example 76A7, 1-(2,3-Dihydrobenzo[1,4]dioxin-5-yl)-4-[1-[2-(3-thienyl)acetyl]-1,2,3,4-tetrahydroquinolin-2-ylmethyl]piperazine] | 8.5
O=C(C1CCCCC1)N1c2ccccc2CC1CN1CCN(c2cccc3[nH]ccc23)CC1 (stereo not drawn) [Example 48, 1-(1-Cyclohexanecarbonyl-2,3-dihydroindole-2-ylmethyl)-4-(4-indolyl)piperazine] | 17.7
Cc1ccc(S(=O)(=O)N2c3ccccc3CCC2CN2CCN(c3cccc4[nH]ccc34)CC2)cc1 (stereo not drawn) [Example 70A3, 1(4-Indolyl)-4-[1-(4-methylphenylsulphonyl)-1,2,3,4-tetrahydroquinoline-2-ylmethyl]piperazine] | 15.2
COCCC(=O)N1c2ccccc2CCC1CN1CCN(c2ccccc2OCC(F)(F)F)CC1 (stereo not drawn) [Example 7, 1-[1-(3-Methoxypropionyl)-1,2,3,4-tetrahydroquinoline-2-ylmethyl]-4-[2-(2,2,2-trifluoroethoxy)phenyl]piperazine] | 31.2
COc1cc(F)ccc1N1CCN(CC2CCc3ccccc3N2C(=O)CC(C)C)CC1 (stereo not drawn) [Example 74A, 1-(4-Fluoro-2-methoxyphenyl)-4-[1-(3-methylbutanoyl)-1,2,3,4-tetrahydroquinolin-2-ylmethyl]piperazine] | 17.6
COc1cc(F)ccc1N1CCN(CC2CCc3cc(C)ccc3N2C(=O)C2CCCCC2)CC1 (stereo not drawn) [Example 53, 1-(1-Cyclohexanecarbonyl-6-methyl-1,2,3,4-tetrahydroquinoline-2-ylmethyl)-4-(4-fluoro-2-methoxyphenyl)piperazine] | 24.2
O=C(c1ccc(N2CCOCC2)nc1)N1c2ccccc2CCC1CN1CCN(c2cccc3[nH]ccc23)CC1 (stereo not drawn) [Example 68A52, 1-(4-Indolyl)-4-[1-[2-(4-morpholinyl)pyridine-5-carbonyl]-1,2,3,4-tetrahydroquinoline-2-ylmethyl]piperazine] | 18.3
O=C(C1CCCCC1)N1c2ccccc2CCC1CN1CCC(c2cccc(F)c2)CC1 (stereo not drawn) [Example 72A39, 1-(1-Cyclohexanecarbonyl-1,2,3,4-tetrahydroquinolin-2-ylmethyl)-4-(3-fluorophenyl)piperidine] | 39.1
O=C(C1CCCCC1)N1c2ccccc2CCC1CN1CCN(c2cc(Cl)ccc2F)CC1 (stereo not drawn) [Example 60A1, 1-(5-Chloro-2-fluorophenyl)-4-(1-cyclohexanecarbonyl-1,2,3,4-tetrahydroquinoline-2-ylmethyl)piperazine] | 8.1

Compound | Ki [nM]
COc1cc(F)ccc1N1CCN(CC2CCc3ccccc3N2C(=O)CC(C)(C)C)CC1 (stereo not drawn) [Example 74A1, 1-(3,3-Dimethylbutanoyl-1,2,3,4-tetrahydroquinolin-2-ylmethyl)-4-(4-fluoro-2-methoxyhenyl)piperazine] | 2
CCOc1cc(Cl)ccc1N1CCN(CC2CCc3ccccc3N2C(=O)C2CCCCC2)CC1 (stereo not drawn) [Example 62A3, 1-(4-Chloro-2-ethoxyphenyl)-4-(1-cyclohexanecarbonyl-1,2,3,4-tetrahydroquinoline-2-ylmethyl)piperazine] | 5.7
O=S(=O)(c1ccc(F)cc1)N1c2ccccc2CCC1CN1CCN(c2cccc3[nH]ccc23)CC1 (stereo not drawn) [Example 70A4, 1-[1-(4-Fluorophenylsulphonyl)-1,2,3,4-tetrahydroquinoline-2-ylmethyl]-4-(4-indolyl)piperazine] | 20.9
O=C(C1CCCCC1)N1c2ccccc2CCC1CN1CCN(c2ccccn2)CC1 (stereo not drawn) [Example 72A93, 1-(1-Cyclohexanecarbonyl-1,2,3,4-tetrahydroquinolin-2-ylmethyl)-4-(2-pyridyl)piperazine] | 7.8
O=C(C1CCCCC1)N1c2ccccc2CCC1CN1CCN(c2cccc(Cl)c2)CC1 (stereo not drawn) [Example 72A23, 1-(3-Chlorophenyl)-4-(1-cyclohexanecarbonyl-1,2,3,4-tetrahydroquinolin-2-ylmethyl)piperazine] | 24.6
COc1ccccc1OCCN(C)CC1CCc2ccccc2N1C(=O)CC(C)(C)C (stereo not drawn) [Example 77A1, N-[1-(3,3-Dimethylbutanoyl)-1,2,3,4-tetrahydroquinolin-2-ylmethyl]-N-[2-(2-methoxyphenoxy)ethyl]methylamine] | 24.2
CC(=O)N1CCC(C(=O)N2c3ccccc3CCC2CN2CCN(c3cccc4c3OCCO4)CC2)CC1 (stereo not drawn) [Example 76A15, 1-[1-(1-acetyl-4-piperidinecarbonyl)-1,2,3,4-tetrahydroquinolin-2-ylmethyl]-4-(2,3-dihydrobenzo[1,4]dioxin-5-yl)piperazine] | 8.1
Cc1ccc(N2CCN(CC3CCc4ccccc4N3C(=O)C3CCCCC3)CC2)c2cc[nH]c12 (stereo not drawn) [Example 62A5, 1-(1-Cyclohexanecarbonyl-1,2,3,4-tetrahydroquinoline-2-ylmethyl)-4-(7-methyl-4-indolyl)piperazine] | 31.2
O=C(CCOCc1ccccc1)N1c2ccccc2CCC1CN1CCN(c2cccc3[nH]ccc23)CC1 (stereo not drawn) [Example 9, 1-[1-(3-Benzyloxypropionyl)-1,2,3,4-tetrahydroquinoline-2-ylmethyl]-4-(4-indolyl)piperazine] | 9.6
O=C(C1CCCCC1)N1c2cc(F)ccc2CCC1CN1CCN(c2cccc3[nH]ccc23)CC1 (stereo not drawn) [Example 46, 1-(1-Cyclohexanecarbonyl-7-fluoro-1,2,3,4-tetrahydroquinoline-2-ylmethyl)-4-(4-indolyl)piperazine] | 11.2
O=C(COc1ccc(Cl)cc1)N1c2ccccc2CCC1CN1CCN(c2cccc3[nH]ccc23)CC1 (stereo not drawn) [Example 68A51, 1-[1-[2-(4-Chlorophenoxy)acetyl]-1,2,3,4-tetrahydroquinoline-2-ylmethyl]-4-(4-indolyl)piperazine] | 15.6
1-(2-Ethylbutanoyl-1,2,3,4-tetrahydroquinoline-2-ylmethyl)-4-(4-indolyl)piperazine [Example 24A] | 12.9
CC(C)(C)NC(=O)N1c2ccccc2CCC1CN1CCN(c2cccc3[nH]ccc23)CC1 (stereo not drawn) [Example 69A12, 1-[1-(1,1-Dimethylethylaminocarbonyl)-1,2,3,4-tetrahydroquinoline-2-ylmethyl]-1-(4-indolyl)piperazine] | 2.1
O=C(NCCc1ccccc1)N1c2ccccc2CCC1CN1CCN(c2cccc3[nH]ccc23)CC1 (stereo not drawn) [Example 69A10, 1(4-Indolyl)-4-[1-(2-phenylethylaminocarbonyl)-1,2,3,4-tetrahydroquinoline-2-ylmethyl]piperazine] | 13.5
O=C(c1cccc(Cl)c1)N1c2ccccc2CCC1CN1CCN(c2cccc3[nH]ccc23)CC1 (stereo not drawn) [Example 68A6, 1-[1-(3-Chlorobenzoyl)-1,2,3,4-tetrahydroquinoline-2-ylmethyl]-4-(4-indolyl)piperazine] | 14.2
N#Cc1ccc(Cl)cc1N1CCN(CC2CCc3ccccc3N2C(=O)C2CCCCC2)CC1 (stereo not drawn) [Example 35A23, 1-(5-chloro-2-cyanophenyl)-4-(1-cyclohexanecarbonyl-1,2,3,4-tetrahydroquinoline-2-ylmethyl)piperazine] | 3.1
